What was measured:
Details in all cases: stereoisomer not certain
[1] = RP, Waters CORTECS T3, 100 × 2.1 mm, 2.7 µm, 0.3 mL/min, estimated dead time 0.73 min; A: water + 0.1% formic acid, pH 3; B: methanol + 0.1% formic acid, pH 3; gradient (min/%B) 0/5 5/5 25/100 30/100 30.1/5 35/5
[2] = RP, Waters CORTECS T3, 100 × 2.1 mm, 2.7 µm, 0.3 mL/min, estimated dead time 0.73 min; A: water + 0.1% formic acid, pH 3; B: methanol + 0.1% formic acid, pH 3; gradient (min/%B) 0/0 5/0 25/100 30/100 30.1/0 35/0
[3] = RP, Waters CORTECS T3, 100 × 2.1 mm, 2.7 µm, 0.2 mL/min, estimated dead time 1.1 min; A: water + 0.1% formic acid, pH 3; B: methanol + 0.1% formic acid, pH 3; gradient (min/%B) 0/0 1/0 6/5 30/100 35/100 35.1/0 40/0
[4] = RP, Waters CORTECS T3, 100 × 2.1 mm, 2.7 µm, 0.1 mL/min, estimated dead time 2.2 min; A: water + 0.1% formic acid, pH 3; B: methanol + 0.1% formic acid, pH 3; gradient (min/%B) 0/0 1/0 6/5 30/100 35/100 35.1/0 40/0
[5] = RP, Waters CORTECS T3, 100 × 2.1 mm, 2.7 µm, 0.15 mL/min, estimated dead time 1.5 min; A: water + 0.1% formic acid, pH 3; B: methanol + 0.1% formic acid, pH 3; gradient (min/%B) 0/0 1/0 6/5 30/100 35/100 35.1/0 40/0
[6] = RP, Waters CORTECS T3, 100 × 2.1 mm, 2.7 µm, 0.3 mL/min, estimated dead time 0.73 min; A: water + 0.1% formic acid, pH 3; B: methanol + 0.1% formic acid, pH 3; gradient (min/%B) 0/0 1/0 6/5 30/100 35/100 35.1/0 40/0
[7] = RP, Waters CORTECS T3, 100 × 2.1 mm, 2.7 µm, 0.25 mL/min, estimated dead time 0.88 min; A: water + 0.1% formic acid, pH 3; B: methanol + 0.1% formic acid, pH 3; gradient (min/%B) 0/0 1/0 6/5 30/100 35/100 35.1/0 40/0
[8] = RP, Waters CORTECS T3, 100 × 2.1 mm, 2.7 µm, 0.1 mL/min, estimated dead time 2.2 min; A: water + 0.1% formic acid, pH 3; B: methanol + 0.1% formic acid, pH 3; gradient (min/%B) 0/5 5/5 25/95 25.1/100 35/100 35.1/5 45/5
[9] = RP, Waters CORTECS T3, 100 × 2.1 mm, 2.7 µm, 0.3 mL/min, estimated dead time 0.73 min; A: water + 0.1% formic acid, pH 3; B: methanol + 0.1% formic acid, pH 3; gradient (min/%B) 0/5 5/5 25/95 25.1/100 35/100 35.1/5 45/5
[10] = RP, Waters ACQUITY UPLC BEH C18, 100 × 2.1 mm, 1.7 µm, 0.1 mL/min, estimated dead time 2.2 min; A: water + 0.1% formic acid, pH 3; B: methanol + 0.1% formic acid, pH 3; gradient (min/%B) 0/5 5/5 25/100 30/100 30.1/5 35/5
[11] = RP, Waters ACQUITY UPLC BEH C18, 100 × 2.1 mm, 1.7 µm, 0.1 mL/min, estimated dead time 2.2 min; A: water + 0.1% formic acid, pH 3; B: methanol + 0.1% formic acid, pH 3; gradient (min/%B) 0/5 5/5 25/95 25.1/100 35/100 35.1/5 45/5
[12] = as above; remark: listed apart in the source
[13] = RP, Waters CORTECS T3, 100 × 2.1 mm, 2.7 µm, 0.2 mL/min, estimated dead time 1.1 min; A: water + 0.045% formic acid + 0.11% ammonium hydroxide, pH 7; B: methanol; gradient (min/%B) 0/5 5/5 25/95 25.1/100 35/100 35.1/5 45/5
[14] = RP, Waters ACQUITY UPLC BEH C18, 100 × 2.1 mm, 1.7 µm, 0.1 mL/min, estimated dead time 2.2 min; A: water + 0.045% formic acid + 0.11% ammonium hydroxide, pH 7; B: methanol; gradient (min/%B) 0/5 5/5 25/95 25.1/100 35/100 35.1/5 45/5
[15] = RP, Waters ACQUITY UPLC BEH C18, 100 × 2.1 mm, 1.7 µm, 0.2 mL/min, estimated dead time 1.1 min; A: water + 0.025% formic acid + 20 mM ammonium acetate + 0.055% ammonium hydroxide, pH 7; B: methanol; gradient (min/%B) 0/5 5/5 25/100 30/100 30.1/5 35/5
[16] = RP, Waters CORTECS T3, 100 × 2.1 mm, 2.7 µm, 0.3 mL/min, estimated dead time 0.73 min; A: water + 0.1% formic acid, pH 3; B: methanol + 0.1% formic acid, pH 3; gradient (min/%B) 0/0 5/0 25/100 30/100 30.1/0 35/0; remark: listed apart in the source
[17] = RP, Waters CORTECS T3, 100 × 2.1 mm, 2.7 µm, 0.2 mL/min, estimated dead time 1.1 min; A: water + 0.1% formic acid, pH 3; B: methanol + 0.1% formic acid, pH 3; gradient (min/%B) 0/0 1/0 6/5 30/100 35/100 35.1/0 40/0; remark: listed apart in the source
[18] = RP, Waters CORTECS T3, 100 × 2.1 mm, 2.7 µm, 0.3 mL/min, estimated dead time 0.73 min; A: water + 0.1% formic acid, pH 3; B: methanol + 0.1% formic acid, pH 3; gradient (min/%B) 0/0 1/0 6/5 30/100 35/100 35.1/0 40/0; remark: listed apart in the source
[19] = RP, Thermo Scientific Hypercarb, 150 × 2.1 mm, 5 µm, 0.1 mL/min, estimated dead time 3.3 min; A: water + 0.1% formic acid, pH 3; B: methanol + 0.1% formic acid, pH 3; gradient (min/%B) 0/5 5/5 20/100 35/100 35.1/5 45/5
[20] = RP, Waters CORTECS T3, 100 × 2.1 mm, 2.7 µm, 0.15 mL/min, estimated dead time 1.5 min; A: water + 0.1% formic acid, pH 3; B: methanol + 0.1% formic acid, pH 3; gradient (min/%B) 0/5 5/5 25/95 25.1/100 35/100 35.1/5 45/5
[21] = RP, Waters ACQUITY UPLC BEH C18, 100 × 2.1 mm, 1.7 µm, 0.2 mL/min, estimated dead time 1.1 min; A: water + 0.1% formic acid, pH 3; B: methanol + 0.1% formic acid, pH 3; gradient (min/%B) 0/5 5/5 25/100 30/100 30.1/5 35/5
[22] = RP, Waters CORTECS T3, 100 × 2.1 mm, 2.7 µm, 0.25 mL/min, estimated dead time 0.88 min; A: water + 0.1% formic acid, pH 3; B: methanol + 0.1% formic acid, pH 3; gradient (min/%B) 0/5 5/5 25/95 25.1/100 35/100 35.1/5 45/5
[23] = RP, Waters ACQUITY UPLC BEH C18, 100 × 2.1 mm, 1.7 µm, 0.1 mL/min, estimated dead time 2.2 min; A: water + 0.1% formic acid, pH 3; B: methanol + 0.1% formic acid, pH 3; gradient (min/%B) 0/5 5/5 25/95 25.1/100 35/100 35.1/5 45/5; remark: listed apart in the source
[24] = RP, Waters ACQUITY UPLC BEH C18, 100 × 2.1 mm, 1.7 µm, 0.2 mL/min, estimated dead time 1.1 min; A: water + 0.025% formic acid + 20 mM ammonium acetate + 0.055% ammonium hydroxide, pH 7; B: methanol; gradient (min/%B) 0/5 5/5 25/100 30/100 30.1/5 35/5; remark: listed apart in the source
[25] = HILIC, Merck SeQuant ZIC-HILIC, 150 × 2.1 mm, 5 µm, 0.75 mL/min, estimated dead time 0.44 min; A: water + 10 mM ammonium formate, pH 6; B: 5% water + 95% acetonitrile + 10 mM ammonium formate, pH 6; gradient (min/%B) 0/95 5/95 20/57 25/57 30/95 40/95
[26] = HILIC, Merck SeQuant ZIC-HILIC, 150 × 2.1 mm, 5 µm, 0.75 mL/min, estimated dead time 0.44 min; A: water + 0.1% acetic acid + 10 mM ammonium acetate, pH 4; B: 5% water + 95% acetonitrile + 0.1% acetic acid + 10 mM ammonium acetate, pH 4; gradient (min/%B) 0/95 5/95 20/57 25/57 30/95 40/95

LC retention time [1] [min]	LC retention time [2] [min]	LC retention time [3] [min]	LC retention time [4] [min]	LC retention time [5] [min]	LC retention time [6] [min]	LC retention time [7] [min]	LC retention time [8] [min]	LC retention time [9] [min]	LC retention time [10] [min]	LC retention time [11] [min]	LC retention time [12] [min]	LC retention time [13] [min]	LC retention time [14] [min]	LC retention time [15] [min]	Structure (SMILES)	other results
–	–	23.5	21	24.7	22.6	22.9	23.8	19.9	22.8	23.5	23.5	20.9	23.4	19.9	C=CC1=C(C)C(C=c2[nH]c(=Cc3[nH]c(C=C4NC(=O)C(C)=C4C=C)c(C)c3CCC(=O)O)c(CCC(=O)O)c2C)=NC1=O [BILIVERDIN]	–
10.7	11.7	–	12.1	14.9	–	–	15.3	–	15.2	15.5	–	1.35	–	6.2	O=C(O)CCCCC1SCC2NC(=O)NC21 (stereo not given) [BIOTIN]	LC retention time [16]: 11.7 min; LC retention time [17]: 13.7 min; LC retention time [18]: 12.3 min; LC retention time [19]: 30.7 min; LC retention time [20]: 13.3 min; LC retention time [21]: 12.1 min; LC retention time [22]: 11.4 min; LC retention time [23]: 15.5 min; LC retention time [24]: 3.98 min; LC retention time [25]: 7.34 min; LC retention time [26]: 8.19 min
10.1	11.1	13	11.5	14.2	11.7	12.2	14.7	10.2	14.4	14.6	14.6	11.6	14.6	11.3	Cn1c(=O)c2c(ncn2C)n(C)c1=O [CAFFEINE]	–
2.45	–	6.86	3.48	9.27	–	5.85	2.71	2.38	2.74	2.66	2.66	–	–	–	Nc1nc2nc[nH]c2c(=O)[nH]1 [GUANINE]	–
22.2	22.4	27.4	24.1	28.2	26.1	26.6	26.6	23	26.4	28.1	27.9	–	29.1	–	CCCCCCCCCCCCCCCC(O)C(N)CO (stereo not given) [SPHINGANINE]	–

Structure (SMILES)	LC retention time [1] [min]	LC retention time [2] [min]	LC retention time [3] [min]	LC retention time [4] [min]	LC retention time [5] [min]	LC retention time [6] [min]	LC retention time [7] [min]	LC retention time [8] [min]	LC retention time [9] [min]	LC retention time [10] [min]	LC retention time [11] [min]	LC retention time [12] [min]	LC retention time [13] [min]	LC retention time [14] [min]	LC retention time [15] [min]	other results
NC(Cc1ccc(Oc2cc(I)c(O)c(I)c2)c(I)c1)C(=O)O (stereo not given) [3,3',5'-TRIIODOTHYRONINE]	17.3	17.9	21.4	19.1	22.5	20.2	20.8	21.8	17.9	21.6	22.2	22.2	–	–	–	–
O=C(O)c1ccc(=O)[nH]c1 [6-HYDROXYNICOTINATE]	2.27	3.6	5.13	3.28	6.98	3.45	4.17	6.46	2.17	6.36	6.29	2.75	–	–	–	–

Reference: the RepoRT retention time repository (doi:10.1016/j.jchromb.2020.122105)
